The source of these data is patent US11331328B2, “Compositions and methods for inhibiting antiapoptotic Bcl-2 proteins as anti-aging agents” (priority 2014, dated 2022).

Data set [1] relates to mouse embryonic fibroblasts (MEF). Description: Cell viability, IR-SC vs NC, mouse embryonic fibroblasts. Format: cell-based. Particulars: increasing concentrations, 72 h. As for the experimental part: Human WI-38 fibroblasts (WI38 cells, #CCL-75™), human IMR-90 fibroblasts (IMR90 cells, #CCL-186™), human renal epithelial cells (REC cells, #PCS-400-012™) were obtained from ACTT (Manassas, Va., USA). Mouse embryonic fibroblasts (MEF) were isolated from mouse embryos as described^1. All cells were cultured in a complete medium (CM) (Dulbecco's Modified Eagle Medium supplemented with 10% fetal bovine serum [FBS], 100 U/ml penicillin, and 100 μg/ml streptomycin [all from Atlanta Biologicals, Norcross, Ga., and USA]) in a humidified incubator at 37° C. and 5% CO2. Low passages of WI-38 cells (<25), IMR-90 (<25), REC cells (<25) and MEF (<3) were used as non-senescent controls or for induction of senescence to avoid replicative senescence. To induce replicative senescence, WI-38 cells were subcultivated until cell division ceased after about 38 passages or 60 population doublings (FIG. 5)^2. […]
Flow cytometry: Non-senescent and senescent cells were seeded into wells of 24- or 48-well at about 70% of confluence. […] Viable cells (PI^− cells) were numerated by flow cytometry at a constant flow rate and calculated as a percentage of control cells treated with vehicle using the formula: percentage of control=(Ndrug/NC)×100, where Ndrug and NC represent the absolute number of PI^− viable cells of drug-treated and vehicle-treated cells, respectively.

Data set [2] relates to IL-1α, TNFα, CCL-5, CXCL-10 mRNA. Briefly: SASP mRNA levels in lungs of TBI p16-3MR mice (qRT-PCR). The format is in vivo, mouse. Particulars: 6 Gy TBI; 2 treatment cycles. As for the experimental part:
To measure p21 and GAPDH mRNA levels in WI-38 cells and IL-1α, TNFα, CCL-5, and CXCL-10 mRNA levels in mouse tissues, SYBR assay kit was used (Applied biosystems in life technologies). Briefly, 1 μl cDNA was mixed with 7.5 μl SYBR Green PCR Master Mix and 0.2 μl of primers (Table 5). Samples were then added with 6.30 μl of H2O to give a total 15 μl of mixture. qPCR conditions were as follows: 95° C. for 10 min, 40×(95° C. for 15 s and 60° C. for 1 min), 95° C. for […], 95° C. for 15 min. All reactions were run in triplicate on an ABI StepOnePlus Real-Time PCR System.
On the technique in general: Real-time PCR tracks product formation cycle by cycle.

The next data set deals with caspase 3, caspase 8. Briefly: Western blot analysis of caspase activation. Format: cell-based, human. Particulars: IR-SC WI-38; 1.25 μM ABT263, 24 h. As for the experimental part: Cells (1×10^6) were lysed in 100 μl lysis buffer (20 mM Tris-HCl, pH 7.4, 150 mM NaCl, 1 mM EDTA. 1 mM EGTA, 10% glycerol, 1.0% NP-40, 0.1 M NaF, 1 mM DTT, 1 mM PMSF, 1 mM NaVO4, 2 μg/ml leupeptin and aprotinin) for 30 min on ice, and cell extracts were sonicated 3 times (5 secs each time) on ice with a 25-sec interval in between using a Sonic Dismembrator Ultrasonic Convertor (Model F60, from Fisher, Pittsburgh, Pa., USA). The protein concentrations were quantified using the Bio-Rad Dc protein assay kit (Bio-Rad Laboratories, Hercules, Calif., USA). Equal amounts of protein (25-50 μg/lane) from each extract was resolved on 12% SDS-PAGE gels. Proteins were blotted to NOVEX NC membranes (Life Technologies, Carlsbad, Calif., USA). The membranes were blocked with TBS-T (5% nonfat milk in 25 mM Tris-HCl, pH 7.4. 3 mM KCl, 140 mM NaCl, and 0.05% Tween) and subsequently probed with primary antibodies at a predetermined optimal concentration as indicated in Supplementary Table 3 overnight at 4° C. or for 1 h at room temperature. […] After three washes with TBS-T, the blots were detected using the ECL Western Blotting Detection Reagents (Cat #WBKLS0100) (EMD MILLIPORE. Newmarket, Suffolk, UK) and recorded by exposure of the blots to X-ray film (Pierce Biotech, Rockford, Ill., USA).
In general terms: Immunoblotting shows a protein as a band on a membrane.

A further data set has as its system IR-induced WI-38 SCs. Description: Apoptosis analysis (Annexin V/PI flow cytometry). Format: cell-based, human. Particulars: 1.25 μM ABT263, 24 h, with or without 20 μM Q-VD-OPh. As for the experimental part:
Cells were seeded into a 6-well plate at 4-6×10^5 cells/well. […] The cells were harvested 24 h after treatment and resuspended in 1× annexin V binding buffer (BD Biosciences) at 1×10^6 cells/ml. An aliquot (100 μl) of the cell suspension was incubated with 5 μl of Annexin V-FITC (BD Biosciences) or PI (1 mg/ml) for 15 min at room temperature in the dark. After addition of 400 μl of 1× binding buffer, 10,000 cells per sample were analyzed by a BD LSR H flow cytometer (BD Biosciences).
A general note: Flow cytometry measures light scatter and fluorescence of single cells or particles in a stream.

The test system of data set [3] is senescent HSCs induced by TBI.
Experimental: The femora and tibiae were harvested from mice immediately after they were euthanized. BM cells were flushed from the bones into HBSS containing 2% FCS using a 21-gauge needle and syringe. […] The labeled mature lymphoid and myeloid cells were depleted twice by incubation with goat anti-rat IgG paramagnetic beads (Dynal Inc, Lake Success, N.Y., USA) at a bead:cell ratio of approximately 4:1. Cells binding the paramagnetic beads were removed with a magnetic field. The negatively isolated Lin^− cells were washed twice with 2% FCS/HBSS and resuspended in complete medium (RPMI1640 medium supplemented with 10% FCS, 2 mM L-glutamine, 10 μM HEPES buffer, and 100 U/ml penicillin and streptomycin) at 1×10^6/ml. HSCs (CD150^+CD48^− LSK^+ cells) were sorted by a BD FACSAria II cell sorter (BD Biosciences, San Jose, Calif.) after Lin^− cells were preincubated with anti-CD16/32 antibody to block the Fcγ receptors and then stained with anti-Sca1-PE, c-Kit-APC-Cy7, CD150-APC and CD48-Pacific blue antibodies. Dead cells were excluded by gating out the cells that stained positive with PI.
Feeder cell stromal layers were prepared by seeding 10^3/well FBMD-1 stromal cells in each well of flat-bottom 96-well plates (Falcon, Lincoln Park, N.J.). One week later, BM-MNCs resuspended in CAFC medium (Iscove's MDM supplemented with 20% horse serum, 10^−5 M hydrocortisone, 10^−5 M 2-mercaptoethanol, 100 U/ml penicillin, and 100 μg/ml streptomycin) after various treatments described above were overlaid on these stromal layers in 6 dilutions at 3-fold intervals. Twenty wells were plated for each dilution to allow limiting dilution analysis of the precursor cells forming hematopoietic cell clones under the stromal layer. Cultures were fed weekly by changing one-half of the media. The frequencies of CAFC were determined on days 14 and 35. Wells were scored positive if at least one phase-dark hematopoietic clone (containing 5 or more cells) was seen. The frequency of CAFC was then calculated by using Poisson statistics as described previously^9, 10. […]

Each structure is given as a SMILES string.

As to `CC1(C)CCC(c2ccc(Cl)cc2)=C(CN2CCN(c3ccc(C(=O)NS(=O)(=O)c4ccc(N[C@H](CCN5CCOCC5)CSc5ccccc5)c(S(=O)(=O)C(F)(F)F)c4)cc3)CC2)C1` [ABT263, navitoclax], the “viable cells, IR-SC vs NC” value in data set [1] is given as “kills IR-induced senescent cells (IR-SC) but not non-senescent cells (NC)”. The SASP in lungs result in data set [2] was “suppressed the SASP induced by TBI”. Also, the caspase activation result in the data set with caspase 3, caspase 8 is recorded as “SCs activated caspase 3, but not caspase 8”. In addition, the apoptosis induction result in the data set on IR-induced WI-38 SCs was “selectively killed SCs by inducing apoptosis, which was abrogated by QVD”. Also, the “HSC myeloid skewing, quiescence and persistent DNA damage” value in data set [3] (TBI mice, Ki67, γH2AX, BMT) was “attenuated IR-induced HSC myeloid skewing and disruption of HSC quiescence, and reduced HSCs with persistent DNA damage”. For the same compound, the “BM HSC and HPC numbers” value in data set [3] (after ABT263 treatment of CTL or TBI mice) is “did not quantitatively reduce BM HSCs or hematopoietic progenitor cells (HPCs)”. For the same compound, the “clonogenicity (CAFC) and long-term engraftment ability of HSCs” value in data set [3] (day-35 CAFC, competitive and serial BMT) is “significantly improved the clonogenicity and long-term engraftment ability of HSCs”.
